Assays:
Human HDAC1 = Human HDAC1 (Homo sapiens (Human), UniProt Q13547); experiment: HDAC1 fluorogenic peptide deacetylation assay; assay type: biochemical; details: human HDAC1, 50 μM substrate, 30° C., 2 h; read-out: IC50 (nM) of enzyme activity HDAC1
Human HDAC2 = Human HDAC2 (Homo sapiens (Human), UniProt Q92769); experiment: HDAC2 fluorogenic peptide deacetylation assay; assay type: biochemical; details: human HDAC2, 50 μM substrate, 30° C., 2 h; read-out: IC50 (nM) of enzyme activity HDAC2
Chain of Human HDAC2 (Q92769 whole entry): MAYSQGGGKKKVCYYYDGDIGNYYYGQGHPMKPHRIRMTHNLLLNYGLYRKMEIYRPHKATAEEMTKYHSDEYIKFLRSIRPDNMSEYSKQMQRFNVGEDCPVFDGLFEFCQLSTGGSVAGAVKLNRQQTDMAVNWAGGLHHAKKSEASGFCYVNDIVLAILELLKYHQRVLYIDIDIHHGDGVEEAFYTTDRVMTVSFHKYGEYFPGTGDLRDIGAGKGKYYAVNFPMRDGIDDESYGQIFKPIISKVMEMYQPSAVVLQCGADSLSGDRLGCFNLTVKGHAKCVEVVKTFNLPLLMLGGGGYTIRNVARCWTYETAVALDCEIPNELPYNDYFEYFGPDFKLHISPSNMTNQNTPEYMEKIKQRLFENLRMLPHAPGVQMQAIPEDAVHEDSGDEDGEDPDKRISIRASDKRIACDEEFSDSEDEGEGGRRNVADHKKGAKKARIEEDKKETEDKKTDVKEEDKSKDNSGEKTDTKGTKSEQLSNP

Human HDAC3/NcoR2 = Human HDAC3/NcoR2 (Homo sapiens (Human), UniProt O15379); experiment: HDAC3 fluorogenic peptide deacetylation assay; assay type: biochemical; details: human HDAC3/NcoR2, 50 μM substrate, 30° C., 2 h; read-out: IC50 (nM) of enzyme activity HDAC3
Chain of Human HDAC3/NcoR2 (O15379 whole entry): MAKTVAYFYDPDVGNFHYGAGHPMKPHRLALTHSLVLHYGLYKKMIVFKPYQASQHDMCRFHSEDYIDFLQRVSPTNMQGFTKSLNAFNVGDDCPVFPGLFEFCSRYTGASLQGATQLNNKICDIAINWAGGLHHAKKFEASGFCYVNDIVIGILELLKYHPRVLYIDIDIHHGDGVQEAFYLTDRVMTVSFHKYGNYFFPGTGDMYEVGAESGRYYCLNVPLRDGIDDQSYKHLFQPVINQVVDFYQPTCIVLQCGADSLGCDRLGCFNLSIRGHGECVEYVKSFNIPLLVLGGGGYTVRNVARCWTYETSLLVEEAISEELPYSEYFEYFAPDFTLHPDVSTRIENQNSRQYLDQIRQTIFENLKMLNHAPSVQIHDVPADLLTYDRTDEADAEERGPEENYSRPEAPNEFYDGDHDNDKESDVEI
Chain of Human HDAC3/NcoR2 (Q9Y618 395-489 partner): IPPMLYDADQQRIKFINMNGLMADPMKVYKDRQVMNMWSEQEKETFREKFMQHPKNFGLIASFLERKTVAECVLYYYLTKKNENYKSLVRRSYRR

Human HDAC8 = Human HDAC8 (Homo sapiens (Human), UniProt Q9BY41); experiment: HDAC8 fluorogenic peptide deacetylation assay; assay type: biochemical; details: human HDAC8, 50 μM substrate, 30° C., 2 h; read-out: IC50 (nM) of enzyme activity HDAC8
Chain of Human HDAC8 (Q9BY41 whole entry): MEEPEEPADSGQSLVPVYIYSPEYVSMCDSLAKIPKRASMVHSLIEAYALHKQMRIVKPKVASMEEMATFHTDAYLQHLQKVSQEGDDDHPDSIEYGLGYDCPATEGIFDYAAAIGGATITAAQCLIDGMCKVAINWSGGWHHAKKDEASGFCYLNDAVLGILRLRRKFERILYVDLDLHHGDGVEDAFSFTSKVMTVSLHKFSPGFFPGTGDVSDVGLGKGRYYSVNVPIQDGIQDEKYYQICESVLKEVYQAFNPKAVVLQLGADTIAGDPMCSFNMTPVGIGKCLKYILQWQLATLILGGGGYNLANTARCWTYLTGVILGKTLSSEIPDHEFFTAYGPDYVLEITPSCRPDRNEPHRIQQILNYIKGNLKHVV

[1] = system: Nuclear Extract from HeLa Cells; experiment: HeLa Nuclear Extract HDAC assay; assay type: biochemical, human; details: 50 μM substrate, 30° C., 2 h, read-out: IC50 (nM) of enzyme activity HeLa
Human HDAC6 = Human HDAC6 (Homo sapiens (Human), UniProt Q9UBN7); experiment: HDAC6 fluorogenic peptide deacetylation assay; assay type: biochemical; details: human HDAC6, 50 μM substrate, 30° C., 2 h; read-out: IC50 (nM) of enzyme activity HDAC6
Chain of Human HDAC6 (Q9UBN7 whole entry): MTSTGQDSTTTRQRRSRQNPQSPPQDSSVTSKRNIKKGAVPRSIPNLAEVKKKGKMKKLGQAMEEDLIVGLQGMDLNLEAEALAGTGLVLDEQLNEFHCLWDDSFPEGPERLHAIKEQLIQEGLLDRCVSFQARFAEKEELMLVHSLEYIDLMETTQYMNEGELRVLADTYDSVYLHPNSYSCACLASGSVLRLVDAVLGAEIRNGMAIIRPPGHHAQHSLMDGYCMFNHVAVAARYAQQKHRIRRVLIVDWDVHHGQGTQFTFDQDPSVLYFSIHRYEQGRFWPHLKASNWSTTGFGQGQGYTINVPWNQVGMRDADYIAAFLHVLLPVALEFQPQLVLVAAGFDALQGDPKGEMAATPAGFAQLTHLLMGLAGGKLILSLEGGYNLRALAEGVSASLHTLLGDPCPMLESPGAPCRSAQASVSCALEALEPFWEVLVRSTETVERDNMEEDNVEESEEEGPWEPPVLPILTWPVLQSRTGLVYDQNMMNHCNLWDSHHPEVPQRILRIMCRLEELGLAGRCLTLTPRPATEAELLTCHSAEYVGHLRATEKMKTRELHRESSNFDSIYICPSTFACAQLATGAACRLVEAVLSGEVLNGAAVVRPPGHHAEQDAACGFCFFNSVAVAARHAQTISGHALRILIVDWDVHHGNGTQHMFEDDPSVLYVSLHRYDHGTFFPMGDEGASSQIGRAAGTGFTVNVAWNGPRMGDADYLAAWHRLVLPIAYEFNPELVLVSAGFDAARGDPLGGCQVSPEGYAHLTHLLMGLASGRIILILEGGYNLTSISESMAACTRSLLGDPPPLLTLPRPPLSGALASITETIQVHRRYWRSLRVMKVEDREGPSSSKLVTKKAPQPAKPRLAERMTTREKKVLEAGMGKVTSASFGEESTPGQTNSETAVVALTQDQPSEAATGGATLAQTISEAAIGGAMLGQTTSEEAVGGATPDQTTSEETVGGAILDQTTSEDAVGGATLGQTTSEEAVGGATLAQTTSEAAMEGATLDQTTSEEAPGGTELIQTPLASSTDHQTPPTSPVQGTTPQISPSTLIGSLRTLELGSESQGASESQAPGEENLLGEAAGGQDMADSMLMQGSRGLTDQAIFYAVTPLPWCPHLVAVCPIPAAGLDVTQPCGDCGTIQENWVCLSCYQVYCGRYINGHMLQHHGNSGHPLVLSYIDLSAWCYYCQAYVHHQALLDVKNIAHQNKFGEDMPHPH

[2] = target: histone deacetylase from rat liver; experiment: Rat liver HDAC assay; assay type: biochemical; details: Boc-Lys(Ac)-AMC substrate, 30° C., 2 h, read-out: IC50 (nM) of enzyme activity Rat liver

Chain of Human HDAC1 (Q13547 whole entry): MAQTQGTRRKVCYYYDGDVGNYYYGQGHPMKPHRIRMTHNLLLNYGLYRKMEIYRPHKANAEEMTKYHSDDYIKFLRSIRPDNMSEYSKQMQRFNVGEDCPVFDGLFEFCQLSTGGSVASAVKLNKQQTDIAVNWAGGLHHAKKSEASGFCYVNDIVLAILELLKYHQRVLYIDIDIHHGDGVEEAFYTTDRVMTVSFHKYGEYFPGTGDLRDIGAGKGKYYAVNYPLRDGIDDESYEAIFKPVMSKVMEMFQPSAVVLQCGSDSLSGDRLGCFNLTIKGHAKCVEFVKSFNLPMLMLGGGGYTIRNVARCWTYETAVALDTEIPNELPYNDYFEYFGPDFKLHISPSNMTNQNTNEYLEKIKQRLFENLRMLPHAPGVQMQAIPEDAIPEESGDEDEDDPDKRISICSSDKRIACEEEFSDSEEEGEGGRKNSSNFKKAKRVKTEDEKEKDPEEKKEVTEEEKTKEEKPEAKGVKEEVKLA

Row | Structure (SMILES) | IC50 (Human HDAC1) [nM] | IC50 (Human HDAC2) [nM] | IC50 (Human HDAC3/NcoR2) [nM] | IC50 (Human HDAC8) [nM] | IC50 [1] [nM] | melting point | IC50 (Human HDAC6) [nM] | IC50 [2] [nM]
1 | O=C(NO)c1ccc(CNC(=O)c2[nH]c(-c3cccs3)cc2-c2ccc(F)cc2)nc1 [Example 11, 6-[({[3-(4-fluorophenyl)-5-(2-thienyl)-1H-pyrrol-2-yl]carbonyl}amino)methyl]-N-hydroxynicotinamide] | 744 | 2530 | 754 | 181 | 68.3 | 151 to 152 °C |  | 
2 | O=C(NO)c1ccc(CNC(=O)c2[nH]c(-c3cccs3)cc2-c2ccc(O)cc2)cc1 [Example 13, N-{4-[(hydroxyamino)carbonyl]benzyl}-3-(4-hydroxyphenyl)-5-(2-thienyl)-1H-pyrrole-2-carboxamide] | 865 | 1910 | 614 | 559 | 42 | 171 to 172 °C | 6.6 | 
3 | COc1ccc(-c2cc(-c3ccccc3)[nH]c2C(=O)Nc2ccc(C(=O)NO)o2)cc1 [Example 16, N-{5-[(hydroxyamino)carbonyl]-2-furyl}-3-(4-methoxyphenyl)-5-phenyl-1H-pyrrole-2-carboxamide] |  |  |  |  |  | 160 to 162 °C |  | > 10000
4 | O=C(NO)c1ccc(CNC(=O)c2[nH]c(-c3ccccc3)cc2-c2ccc(F)cc2)o1 [Example 17, 3-(4-fluorophenyl)-N-({5-[(hydroxyamino)carbonyl]-2-furyl}methyl)-5-phenyl-1H-pyrrole-2-carboxamide] |  |  |  |  |  | 152 to 153 °C |  | 9790
5 | COc1ccc(-c2cc(-c3ccccc3)[nH]c2C(=O)Nc2cccc(CC(=O)NO)c2)cc1 [Example 18, N-{3-[2-(hydroxyamino)-2-oxoethyl]phenyl}-3-(4-methoxyphenyl)-5-phenyl-1H-pyrrole-2-carboxamide] |  |  |  |  |  | 205 to 206 °C |  | > 10000
6 | COc1ccc(-c2cc(-c3ccccc3)[nH]c2C(=O)Nc2ccc(C(=O)NO)cc2)cc1 [Example 19, N-{4-[(hydroxyamino)carbonyl]phenyl}-3-(4-methoxyphenyl)-5-phenyl-1H-pyrrole-2-carboxamide] |  |  |  |  |  | 234 to 235 °C |  | 101
7 | COc1ccc(-c2cc(-c3ccccc3)[nH]c2C(=O)NCc2ccc(C(=O)NCCS)cc2)cc1 [Example 23, 3-(4-methoxyphenyl)-5-phenyl-N-(4-{[(2-sulfanylethyl)amino]carbonyl}benzyl)-1H-pyrrole-2-carboxamide] |  |  |  |  |  |  |  | > 10000
8 | COc1ccc(-c2cc(-c3ccccc3)[nH]c2C(=O)NCc2ccc(C(=O)Nc3ccccn3)cc2)cc1 [Example 25, 3-(4-methoxyphenyl)-5-phenyl-N-{4-[(pyridin-2-ylamino)carbonyl]benzyl}-1H-pyrrole-2-carboxamide] | > 5000 | > 5000 | > 5000 | > 5000 | > 5000 | 196 °C (dec.) | > 5000 | 
9 | O=C(NO)c1ccc(CNC(=O)c2[nH]c(-c3ccccc3)cc2-c2ccc(F)cc2)cc1 [Example 29, 3-(4-fluorophenyl)-N-{4-[(hydroxyamino)carbonyl]benzyl}-5-phenyl-1H-pyrrole-2-carboxamide] |  |  |  |  | 73 |  |  | 71
10 | O=C(NO)c1ccc(CNC(=O)c2[nH]c(-c3ccc(F)cc3)cc2-c2ccc(F)cc2)cc1 [Example 30, 3,5-bis-(4-fluorophenyl)-N-{4-[(hydroxyamino)carbonyl]benzyl}-1H-pyrrole-2-carboxamide] |  |  |  |  | 90 |  |  | 82
11 | O=C(NO)c1ccc(CNC(=O)c2[nH]c(-c3cccs3)cc2-c2ccc(F)cc2)cc1 [Example 31, 3-(4-fluorophenyl)-N-{4-[(hydroxyamino)carbonyl]benzyl}-5-(2-thienyl)-1H-pyrrole-2-carboxamide] |  |  |  |  | 58 |  |  | 49
12 | O=C(NO)c1ccc(CNC(=O)c2[nH]c(-c3cccs3)cc2-c2ccc(F)cc2)cn1 [Example 32, 3-(4-fluorophenyl)-N-{2-[(hydroxyamino)carbonyl]-5-pyridyl-methyl}-5-(2-thienyl)-1H-pyrrole-2-carboxamide] |  |  |  |  | 390 |  |  | 
13 | Nc1ccccc1NC(=O)c1ccc(CNC(=O)c2[nH]c(-c3ccc(O)cc3)cc2-c2ccsc2)cc1 [Example 33, N-(4-{[(2-aminophenyl)amino)carbonyl]benzyl}-5-(4-hydroxyphenyl)-3-(3-thienyl)-1H-pyrrole-2-carboxamide] | 103 | 364 | 732 | > 5000 | 3270 |  | > 5000 | 
14 | Nc1ccccc1NC(=O)c1ccc(CNC(=O)c2[nH]c(-c3ccoc3)cc2-c2ccc(O)cc2)cc1 [Example 34, N-(4-{[(2-aminophenyl)amino)carbonyl]benzyl}-5-(3-furyl)-3-(4-hydroxyphenyl)-1H-pyrrole-2-carboxamide] | 86 | 349 | 770 | > 5000 | 1540 |  | 1260 | 
15 | Nc1ccccc1NC(=O)c1ccc(CNC(=O)c2[nH]c(-c3ccc(O)cc3)cc2-c2ccccc2)cc1 [Example 35, N-(4-{[(2-Aminophenyl)amino)carbonyl]benzyl}-5-(4-hydroxyphenyl)-3-phenyl-1H-pyrrole-2-carboxamide] | 108 | 433 | 806 | > 5000 | 4280 |  | > 5000 | 
16 | Nc1ccccc1NC(=O)c1ccc(CNC(=O)c2[nH]c(-c3ccsc3)cc2-c2ccc(O)cc2)cc1 [Example 36, N-(4-{[(2-aminophenyl)amino)carbonyl]benzyl}-3-(4-hydroxyphenyl)-5-(3-thienyl)-1H-pyrrole-2-carboxamide] | 222 | 752 | 2070 | > 5000 | 4080 |  | > 5000 | 
17 | COc1ccc(-c2cc(-c3ccccc3)[nH]c2C(=O)NCc2ccc(C(=O)NO)cc2)cc1 [Example 38, N-{4-[(hydroxyamino)carbonyl]benzyl}-3-(4-methoxyphenyl)-5-phenyl-1H-pyrrole-2-carboxamide] |  |  |  |  |  |  |  | 70
18 | O=C(NO)c1ccc(CNC(=O)c2[nH]c(-c3ccccc3)cc2-c2ccc(C(F)(F)F)cc2)cc1 [Example 39, N-{4-[(hydroxyamino)carbonyl]benzyl}-5-phenyl-3-(4-trifluoromethylphenyl)-1H-pyrrole-2-carboxamide] |  |  |  |  |  |  |  | 170
19 | O=C(NO)c1ccc(CNC(=O)c2[nH]c(-c3ccccc3)cc2-c2ccc(Br)cc2)cc1 [Example 40, 3-(4-bromophenyl)-N-{4-[(hydroxyamino)carbonyl]benzyl}-5-phenyl-1H-pyrrole-2-carboxamide] |  |  |  |  |  |  |  | 99
20 | COc1ccc(-c2cc(-c3ccccc3)[nH]c2C(=O)NCc2ccc(C(=O)NO)cc2)cc1OC [Example 41, N-{4-[(hydroxyamino)carbonyl]benzyl}-3-(3,4-dimethoxyphenyl)-5-phenyl-1H-pyrrole-2-carboxamide] |  |  |  |  |  |  |  | 119
21 | O=C(NO)c1ccc(CNC(=O)c2[nH]c(-c3ccccc3)cc2-c2ccc(F)c(F)c2)cc1 [Example 42, 3-(3,4-difluorophenyl)-N-{4-[(hydroxyamino)carbonyl]benzyl}-5-phenyl-1H-pyrrole-2-carboxamide] |  |  |  |  |  |  |  | 129
22 | O=C(NO)c1ccc(CNC(=O)c2[nH]c(-c3ccccc3)cc2-c2ccc([N+](=O)[O-])cc2)cc1 [Example 43, N-{4-[(hydroxyamino)carbonyl]benzyl}-3-(4-nitrophenyl)-5-phenyl-1H-pyrrole-2-carboxamide] |  |  |  |  |  |  |  | 62
23 | O=C(NO)c1ccc(CNC(=O)c2[nH]c(-c3ccccc3)cc2-c2ccc(Cl)c(Cl)c2)cc1 [Example 44, 3-(3,4-dichlorophenyl)-N-{4-[(hydroxyamino)carbonyl]benzyl}-5-phenyl-1H-pyrrole-2-carboxamide] |  |  |  |  |  |  |  | 153
24 | O=C(NO)c1ccc(CNC(=O)c2[nH]c(-c3ccccc3)cc2-c2cccc(Br)c2)cc1 [Example 45, 3-(3-bromophenyl)-N-{4-[(hydroxyamino)carbonyl]benzyl}-5-phenyl-1H-pyrrole-2-carboxamide] |  |  |  |  |  |  |  | 115
25 | O=C(NO)c1ccc(CNC(=O)c2[nH]c(-c3cccnc3)cc2-c2ccc(F)cc2)cc1 [Example 46, 3-(4-fluorophenyl)-N-{4-[(hydroxyamino)carbonyl]benzyl}-5-(3-pyridinyl)-1H-pyrrole-2-carboxamide] |  |  |  |  |  |  |  | 70
26 | Cc1ccc(-c2cc(-c3ccc(F)cc3)c(C(=O)NCc3ccc(C(=O)NO)cc3)[nH]2)cc1 [Example 47, 3-(4-fluorophenyl)-N-{4-[(hydroxyamino)carbonyl]benzyl}-5-(4-methylphenyl)-1H-pyrrole-2-carboxamide] |  |  |  |  |  |  |  | 108
27 | COc1ccc(-c2cc(-c3ccccc3)[nH]c2C(=O)NCCCCCC(=O)NO)cc1 [Kendine 91, N-[6-(hydroxyamino)-6-oxohexyl]-3-(4-methoxyphenyl)-5-phenyl-1H-pyrrole-2-carboxamide, reference compound] | 508 | 1690 | 613 | 146 | 43 |  | 34.9 | 

Reference: US8685992B2, “Histone deacetylase inhibitors based simultaneously on trisubstituted 1H-pyrroles and aromatic and heteroaromatic spacers” (Universidad del País Vasco, priority 2009, dated 2014)
